± gives the expanded uncertainty stated by the source.
Experiment: xn = mol fraction of the nth substance listed
Details: 101 kPa, Liquid; for speed of sound: Sing-around technique in a fixed-path interferometer

CCOC(C)(C)C [2-ethoxy-2-methylpropane] + Cc1cccc(C)c1
Details	mass density [kg/m3]	speed of sound [m/s]
305.65 K, x1 = 0.05	847.026 ± 0.42	–
305.65 K, x1 = 0.099	840.74 ± 0.43	–
305.65 K, x1 = 0.2	828.116 ± 0.45	–
305.65 K, x1 = 0.3	815.278 ± 0.47	–
305.65 K, x1 = 0.4	802.699 ± 0.48	–
305.65 K, x1 = 0.497	790.26 ± 0.5	–
305.65 K, x1 = 0.598	777.566 ± 0.52	–
305.65 K, x1 = 0.698	765.236 ± 0.54	–
305.65 K, x1 = 0.8	752.76 ± 0.56	–
305.65 K, x1 = 0.898	740.246 ± 0.57	–
305.65 K, x1 = 0.95	733.801 ± 0.58	–
305.65 K, x1 = 1	727.038 ± 0.58	–
308.15 K, x1 = 0.05	844.847 ± 0.42	1261.4 ± 2.2
308.15 K, x1 = 0.099	838.542 ± 0.43	1248.3 ± 2.2
308.15 K, x1 = 0.2	825.874 ± 0.45	1219 ± 2.2
308.15 K, x1 = 0.3	812.993 ± 0.47	1189.3 ± 2.2
308.15 K, x1 = 0.4	800.369 ± 0.49	1159.9 ± 2.2
308.15 K, x1 = 0.497	787.887 ± 0.5	1131 ± 2.2
308.15 K, x1 = 0.598	775.147 ± 0.52	1101.7 ± 2.2
308.15 K, x1 = 0.698	762.77 ± 0.54	1074.5 ± 2.2
308.15 K, x1 = 0.8	750.245 ± 0.56	1045.6 ± 2.2
308.15 K, x1 = 0.898	737.68 ± 0.58	1018.8 ± 2.2
308.15 K, x1 = 0.95	731.212 ± 0.59	1004.3 ± 2.2
308.15 K, x1 = 1	724.443 ± 0.58	986.39 ± 2.2
310.65 K, x1 = 0.05	842.667 ± 0.43	1251.2 ± 2.2
310.65 K, x1 = 0.099	836.338 ± 0.43	1238 ± 2.2
310.65 K, x1 = 0.2	823.629 ± 0.45	1208.6 ± 2.2
310.65 K, x1 = 0.3	810.701 ± 0.47	1178.8 ± 2.2
310.65 K, x1 = 0.4	798.033 ± 0.49	1149.3 ± 2.2
310.65 K, x1 = 0.497	785.51 ± 0.51	1120.3 ± 2.2
310.65 K, x1 = 0.598	772.72 ± 0.53	1091 ± 2.2
310.65 K, x1 = 0.698	760.296 ± 0.54	1063.7 ± 2.2
310.65 K, x1 = 0.8	747.726 ± 0.56	1034.7 ± 2.2
310.65 K, x1 = 0.898	735.108 ± 0.58	1007.8 ± 2.2
310.65 K, x1 = 0.95	728.609 ± 0.59	993.27 ± 2.2
310.65 K, x1 = 1	721.826 ± 0.59	975.42 ± 2.2
313.15 K, x1 = 0.05	840.482 ± 0.43	1241 ± 2.2
313.15 K, x1 = 0.099	834.132 ± 0.44	1227.8 ± 2.2
313.15 K, x1 = 0.2	821.379 ± 0.46	1198.3 ± 2.2
313.15 K, x1 = 0.3	808.405 ± 0.47	1168.3 ± 2.2
313.15 K, x1 = 0.4	795.695 ± 0.49	1138.9 ± 2.2
313.15 K, x1 = 0.497	783.123 ± 0.51	1109.8 ± 2.2
313.15 K, x1 = 0.598	770.288 ± 0.53	1080.4 ± 2.2
313.15 K, x1 = 0.698	757.817 ± 0.55	1053 ± 2.2
313.15 K, x1 = 0.8	745.2 ± 0.57	1024 ± 2.2
313.15 K, x1 = 0.898	732.523 ± 0.58	996.88 ± 2.2
313.15 K, x1 = 0.95	726.007 ± 0.59	982.39 ± 2.2
313.15 K, x1 = 1	719.179 ± 0.59	964.53 ± 2.2
315.65 K, x1 = 0.05	838.29 ± 0.43	1230.9 ± 2.2
315.65 K, x1 = 0.099	831.922 ± 0.44	1217.6 ± 2.2
315.65 K, x1 = 0.2	819.125 ± 0.46	1188 ± 2.2
315.65 K, x1 = 0.3	806.105 ± 0.48	1157.9 ± 2.2
315.65 K, x1 = 0.4	793.351 ± 0.5	1128.5 ± 2.2
315.65 K, x1 = 0.497	780.733 ± 0.52	1099.2 ± 2.2
315.65 K, x1 = 0.598	767.848 ± 0.53	1069.7 ± 2.2
315.65 K, x1 = 0.698	755.328 ± 0.55	1042.3 ± 2.2
315.65 K, x1 = 0.8	742.656 ± 0.57	1013.2 ± 2.2
315.65 K, x1 = 0.898	729.931 ± 0.59	985.99 ± 2.2
315.65 K, x1 = 0.95	723.382 ± 0.6	971.39 ± 2.2
315.65 K, x1 = 1	716.527 ± 0.59	953.54 ± 2.2
318.15 K, x1 = 0.05	836.094 ± 0.44	1220.7 ± 2.2
318.15 K, x1 = 0.099	829.704 ± 0.45	1207.4 ± 2.2
318.15 K, x1 = 0.2	816.865 ± 0.46	1177.8 ± 2.2
318.15 K, x1 = 0.3	803.8 ± 0.48	1147.6 ± 2.2
318.15 K, x1 = 0.4	790.999 ± 0.5	1118 ± 2.2
318.15 K, x1 = 0.497	778.333 ± 0.52	1088.7 ± 2.2
318.15 K, x1 = 0.598	765.399 ± 0.54	1059.2 ± 2.2
318.15 K, x1 = 0.698	752.842 ± 0.56	1031.8 ± 2.2
318.15 K, x1 = 0.8	740.101 ± 0.57	1002.4 ± 2.2
318.15 K, x1 = 0.898	727.323 ± 0.59	975.1 ± 2.2
318.15 K, x1 = 0.95	720.743 ± 0.6	960.42 ± 2.2
318.15 K, x1 = 1	713.96 ± 0.6	942.67 ± 2.2
320.65 K, x1 = 0.05	833.892 ± 0.44	1210.6 ± 2.2
320.65 K, x1 = 0.099	827.484 ± 0.45	1197.3 ± 2.2
320.65 K, x1 = 0.2	814.602 ± 0.47	1167.6 ± 2.2
320.65 K, x1 = 0.3	801.489 ± 0.49	1137.3 ± 2.2
320.65 K, x1 = 0.4	788.639 ± 0.5	1107.6 ± 2.2
320.65 K, x1 = 0.497	775.926 ± 0.52	1078.3 ± 2.2
320.65 K, x1 = 0.598	762.944 ± 0.54	1048.6 ± 2.2
320.65 K, x1 = 0.698	750.335 ± 0.56	1021.1 ± 2.2
320.65 K, x1 = 0.8	737.539 ± 0.58	991.66 ± 2.2
320.65 K, x1 = 0.898	724.705 ± 0.6	964.24 ± 2.2
320.65 K, x1 = 0.95	718.093 ± 0.61	949.5 ± 2.2
320.65 K, x1 = 1	711.25 ± 0.6	931.73 ± 2.2
323.15 K, x1 = 0.05	831.689 ± 0.44	1200.6 ± 2.2
323.15 K, x1 = 0.099	825.258 ± 0.45	1187.2 ± 2.2
323.15 K, x1 = 0.2	812.331 ± 0.47	1157.4 ± 2.2
323.15 K, x1 = 0.3	799.17 ± 0.49	1127 ± 2.2
323.15 K, x1 = 0.4	786.273 ± 0.51	1097.3 ± 2.2
323.15 K, x1 = 0.497	773.51 ± 0.53	1067.8 ± 2.2
323.15 K, x1 = 0.598	760.487 ± 0.54	1038.2 ± 2.2
323.15 K, x1 = 0.698	747.817 ± 0.56	1010.4 ± 2.2
323.15 K, x1 = 0.8	734.964 ± 0.58	980.96 ± 2.2
323.15 K, x1 = 0.898	722.075 ± 0.6	953.5 ± 2.2
323.15 K, x1 = 0.95	715.433 ± 0.61	938.66 ± 2.2
323.15 K, x1 = 1	708.642 ± 0.61	920.73 ± 2.2

From the NIST ThermoML archive (doi:10.1016/j.fluid.2008.03.004)
